From PubChem BioAssay (NCI)
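Dose response: 5 concentrations. Exposure: 48 h. Format: 96-well plates. Endpoint: linear interpolation; highest concentration if not reached. GI50: concentration for 50% inhibition of growth. The concentration for full growth arrest is given as TGI.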

Tests used:
Experiment in all cases: NCI anticancer screen, dose series, 48 h
786-0 renal = test system: 786-0 renal
A498 renal = test system: A498 renal
A549 NSCLC = test system: A549 NSCLC
ACHN renal = test system: ACHN renal
BT-549 breast = test system: BT-549 breast
CAKI-1 renal = test system: CAKI-1 renal
CCRF-CEM leukemia = test system: CCRF-CEM leukemia
COLO 205 colon = test system: COLO 205 colon
DU-145 prostate = test system: DU-145 prostate
EKVX NSCLC = test system: EKVX NSCLC
HCC-2998 colon = test system: HCC-2998 colon
HCT-116 colon = test system: HCT-116 colon
HCT-15 colon = test system: HCT-15 colon
HL-60(TB) leukemia = test system: HL-60(TB) leukemia
HOP-62 NSCLC = test system: HOP-62 NSCLC
HOP-92 NSCLC = test system: HOP-92 NSCLC
HS 578T breast = test system: HS 578T breast
HT29 colon = test system: HT29 colon
IGROV1 ovarian = test system: IGROV1 ovarian
K-562 leukemia = test system: K-562 leukemia
KM12 colon = test system: KM12 colon
LOX IMVI melanoma = test system: LOX IMVI melanoma
M14 melanoma = test system: M14 melanoma
MALME-3M melanoma = test system: MALME-3M melanoma
MCF7 breast = test system: MCF7 breast
MDA-MB-231 breast = test system: MDA-MB-231 breast
MDA-MB-435 = test system: MDA-MB-435
MOLT-4 leukemia = test system: MOLT-4 leukemia
NCI-H226 lung = test system: NCI-H226 lung

Cc1nnc(NC(=O)c2nc(S(=O)(=O)Cc3ccc(F)cc3)ncc2Cl)s1
GI50 (786-0 renal): 4.32 µM | TGI (786-0 renal): 15.5 µM | GI50 (A498 renal): 13.1 µM | TGI (A498 renal): 26.4 µM | GI50 (A549 NSCLC): 18.8 µM | TGI (A549 NSCLC): 35.3 µM | GI50 (ACHN renal): 1.94 µM | TGI (ACHN renal): 3.68 µM | GI50 (BT-549 breast): 2.3 µM | TGI (BT-549 breast): 5.25 µM | GI50 (CAKI-1 renal): 1.78 µM | TGI (CAKI-1 renal): 3.24 µM | GI50 (CCRF-CEM leukemia): 1.52 µM | TGI (CCRF-CEM leukemia): 3.65 µM | GI50 (COLO 205 colon): 1.82 µM | TGI (COLO 205 colon): 3.68 µM | GI50 (DU-145 prostate): 9.44 µM | TGI (DU-145 prostate): 21.7 µM | GI50 (EKVX NSCLC): 6.73 µM | TGI (EKVX NSCLC): 24.3 µM | GI50 (HCC-2998 colon): 13.4 µM | TGI (HCC-2998 colon): 29.4 µM | GI50 (HCT-116 colon): 1.83 µM | TGI (HCT-116 colon): 3.67 µM | GI50 (HCT-15 colon): 1.84 µM | TGI (HCT-15 colon): 3.91 µM | GI50 (HL-60(TB) leukemia): 2.6 µM | TGI (HL-60(TB) leukemia): 4.73 µM | GI50 (HOP-62 NSCLC): 19.8 µM | TGI (HOP-62 NSCLC): 39.3 µM | GI50 (HOP-92 NSCLC): 1.66 µM | TGI (HOP-92 NSCLC): 3.22 µM | GI50 (HS 578T breast): 12.7 µM | TGI (HS 578T breast): 50.8 µM | GI50 (HT29 colon): 2.34 µM | TGI (HT29 colon): 5.8 µM | GI50 (IGROV1 ovarian): 4.87 µM | TGI (IGROV1 ovarian): 19.1 µM | GI50 (K-562 leukemia): 1.77 µM | TGI (K-562 leukemia): 4.52 µM | GI50 (KM12 colon): 18.5 µM | TGI (KM12 colon): 37 µM | GI50 (LOX IMVI melanoma): 1.5 µM | TGI (LOX IMVI melanoma): 2.96 µM | GI50 (M14 melanoma): 2.88 µM | TGI (M14 melanoma): 10.3 µM | GI50 (MALME-3M melanoma): 1.8 µM | TGI (MALME-3M melanoma): 3.48 µM | GI50 (MCF7 breast): 3.29 µM | TGI (MCF7 breast): 17.6 µM | GI50 (MDA-MB-231 breast): 1.78 µM | TGI (MDA-MB-231 breast): 3.31 µM | GI50 (MDA-MB-435): 1.82 µM | TGI (MDA-MB-435): 3.43 µM | GI50 (MOLT-4 leukemia): 2.02 µM | TGI (MOLT-4 leukemia): 4.38 µM | GI50 (NCI-H226 lung): 6.27 µM
